Measured values as given in patent US20120142005A1, “METHOD FOR SCREENING OF REGENERATIVE MEDICINE” (TAKEDA PHARMACEUTICAL COMPANY LIMITED, priority 2009, published 2012).

Experiments:
Assay type in all cases: cell-based
[1] = tested on: human mesenchymal stem cells; assay: Bone differentiation of human mesenchymal stem cells: expression of Alp1, Runx2, Col1a1 and PTHR by quantitative RT-PCR; details: 8 days; for level of expression of Alp1: 3 μM compound added with bone differentiation induction, relative to DMSO control
Procedure: Then, the influence of the selected compounds was examined on bone differentiation of human mesenchymal stem cells. The human mesenchymal stem cells were maintained and cultured using the same technique as in Example 6. Cells were seeded on a 96-well plate to 1,000 cells per well and then cultured overnight using the growth medium. Thereafter, the bone differentiation was induced by exchanging the medium with a medium made by addition of 10% calf fetal serum, 2 mM GlutaMAX-1, 10 mMβ-glycerophosphate (Wako Pure Chemical Industries Ltd.), 0.05 mM ascorbic acid-2-phosphate (Wako Pure Chemical Industries Ltd.), 0.1 μM dexamethasone (Wako Pure Chemical Industries Ltd.), and 1× penicillin-streptomycin (Sigma) to low-glucose DMEM. Simultaneously with inducing bone differentiation, each selected compound was added to a final concentration of 3 μM, followed by adhesion culture for 8 days. After the end of culture, the level of expression of Alkaline phosphatase (Alp1) as an initial osteoblast marker was measured using the same technique as in Example 1.
The expression of other bone differentiation markers for which BIO or BrdU was added was also examined. Adhesion culture was performed for 8 days after adding BIO or BrdU, followed by measuring the levels of expression of runt-related transcription factor 2 (Runx2), collagen type 1 alpha 1 (Col1a1), and parathyroid hormone receptor (PTHR) using the same technique as in Example 1.

[2] = tested on: human mesenchymal stem cells; assay: Bone differentiation of human mesenchymal stem cells: amount of calcium accumulated in cells; details: 15 days
Procedure: In addition, the amount of calcium accumulated in cells was examined. Simultaneously with inducing bone differentiation, 3 μM BIO or 10 μM BrdU was added, followed by adhesion culture for 15 days. After culture, cells were washed with PBS, followed by dissolving the cells in a solution consisting of 10 mM Tris-HCl and 0.2% TritonX-100. Using a portion of the solution, the protein concentration was measured employing BCA protein assay kit (Pierce). Hydrochloric acid was added to a final concentration of 0.5 N to the remaining solution, which was then shaken overnight. The amount of calcium dissolving in the solution containing 0.5 N hydrochloric acid was measured using Calcium E-test Kit Wako (Wako Pure Chemical Industries Ltd.). The amount of calcium used the value corrected for the amount of protein for analysis.

[3] = tested on: human mesenchymal stem cells; assay: Bone differentiation of human mesenchymal stem cells: staining with alkaline phosphatase; details: 8 days
Procedure: To further verify the influence of compounds on bone differentiation, staining with alkaline phosphatase was performed. Simultaneously with inducing bone differentiation, 3 μM BIO or 10 μM BrdU was added, followed by adhesion culture for 8 days. After culture, cells were fixed with 4% paraformaldehyde (Wako Pure Chemical Industries Ltd.) for 30 minutes and then washed 3 times with PBS. Alkaline phosphatase kit III (Vector Laboratories) was used according to the appended protocol to stain with alkaline phosphatase.

[4] = tested on: human mesenchymal stem cells; assay: Adipose differentiation of human mesenchymal stem cells: fat droplet formation, oil red O staining; details: adhesion culturing 5 days
Procedure: The influence of the 3 compounds on fat droplet formation was then examined. Simultaneously with inducing adipose differentiation, 10 μM Y-27632, 10 μM HA-100, or 3 μM capsazepine was added to an adipose differentiation induction medium, followed by adhesion culturing for 5 days. Thereafter, the cells were fixed with 4% paraformaldehyde (Wako Pure Chemical Industries Ltd.) for 30 minutes and then washed 3 times with PBS. In addition, the cells were stained with 0.36% oil red 0 (Chemicon) at room temperature for 50 minutes and then washed 3 times with distilled water, followed by observing and photographing the cell.

[5] = tested on: human mesenchymal stem cells; assay: Adipose differentiation of human mesenchymal stem cells: expression of adiponectin and PPARγ by quantitative RT-PCR; details: for level of expression of adiponectin: 3 μM compound added with adipose differentiation induction, 5 days, relative to DMSO control; for level of expression of PPARγ: adipose differentiation, 5 days (FIG. 12a)
Procedure: There was possibility that the selected compounds control the differentiation of adult stem cells as well as ES cells. Accordingly, the influence of these selected compounds was examined on adipose differentiation of human mesenchymal stem cells. The human mesenchymal stem cells were purchased from Lonza and subjected to adhesion culturing using a medium made by addition of 10% calf fetal serum, 2 mM GlutaMAX-1, and 1× penicillin-streptomycin (Sigma) (hereinafter referred to as “growth medium”) to low-glucose DMEM (Invitrogen). Upon induction of an adipose differentiation, cells were seeded on a 96-well plate to 3,000 cells per well and then cultured overnight using the growth medium. Thereafter, the adipose differentiation was induced by exchanging the growth medium with an adipose differentiation induction medium (i.e., a medium made by addition of 10% calf fetal serum, 2 mM GlutaMAX-1, 0.5 mM 3-isobutyl-1-methylxanthine (IBMX, Wako Pure Chemical Industries Ltd.), 10 μg/ml insulin (Wako Pure Chemical Industries Ltd.), 1 μM dexamethasone (Wako Pure Chemical Industries Ltd.), 200 μM indomethacin (Wako Pure Chemical Industries Ltd.), and 1× penicillin-streptomycin (Sigma) to high-glucose DMEM (Invitrogen)). Simultaneously with inducing adipose differentiation, each selected compound was added to a final concentration of 3 μM, followed by culture for 5 days. After 5 days, the level of expression of adiponectin as a fat cell marker was measured using the same technique as that described in Example 1.
In addition, the level of expression of PPARγ as a master regulator of adipose differentiation for which the 3 compounds (Y-27632, HA-100 and capsazepine) were each added was also measured using the same technique.

[6] = tested on: human mesenchymal stem cells; assay: Adipose differentiation of human mesenchymal stem cells: amount of adiponectin in culture solution, ELISA; details: adhesion culture 8 days
Procedure: In addition, when each of the 3 compounds was added, the amount of adiponectin contained in a corresponding culture solution was measured. Simultaneously with inducing adipose differentiation, 10 μM Y-27632, 10 μM HA-100, or 3 μM capsazepine was added, followed by adhesion culture for 8 days. After culture, the amount of adiponectin contained in the culture solution was measured using a human adiponectin ELISA kit (R&D systems).

SMILES: O=C1Nc2cc(Br)ccc2/C1=C1/Nc2ccccc2/C1=N\O [BIO, 6-bromoindirubin-3′ oxime]
- level of expression of Alp1 [1]: noticeably increasing the level of expression of Alp1
- level of expression of Col1a1 ([1]; 3 μM compound): noticeably increased
- level of expression of PTHR ([1]; 3 μM compound): noticeably increased
- level of expression of Runx2 ([1]; 3 μM compound): noticeably increased
- amount of calcium in cells, corrected for amount of protein ([2]; 3 μM compound): increased the amount of calcium in cells
- stainability with alkaline phosphatase (alkaline phosphatase activity) ([3]; 3 μM compound): increased the stainability with alkaline phosphatase

SMILES: O=c1[nH]c(=O)n([C@H]2C[C@H](O)[C@@H](CO)O2)cc1Br [BrdU, 5-Bromo-2′-deoxyuridine]
- level of expression of Alp1 [1]: noticeably increasing the level of expression of Alp1
- level of expression of Col1a1 ([1]; 10 μM compound): noticeably increased
- level of expression of PTHR ([1]; 10 μM compound): noticeably increased
- level of expression of Runx2 ([1]; 10 μM compound): noticeably increased
- amount of calcium in cells, corrected for amount of protein ([2]; 10 μM compound): increased the amount of calcium in cells
- stainability with alkaline phosphatase (alkaline phosphatase activity) ([3]; 10 μM compound): increased the stainability with alkaline phosphatase

SMILES: O=S(=O)(c1cccc2cnccc12)N1CCNCC1 [HA-100]
- amount of fat droplets (oil red O) compared to DMSO control ([4]; 10 μM compound): the amount of fat droplets increased
- level of expression of adiponectin [5]: increase the level of expression of adiponectin
- level of expression of PPARγ [5]: increasing the level of expression of PPARγ in a concentration-dependent manner
- amount of adiponectin contained in the culture solution ([6]; 10 μM compound): noticeably increased the amount of adiponectin

SMILES: C[C@@H](N)[C@H]1CC[C@H](C(=O)Nc2ccncc2)CC1 [Y-27632]
- amount of fat droplets (oil red O) compared to DMSO control ([4]; 10 μM compound): the amount of fat droplets increased
- level of expression of adiponectin [5]: increase the level of expression of adiponectin
- level of expression of PPARγ [5]: increasing the level of expression of PPARγ in a concentration-dependent manner
- amount of adiponectin contained in the culture solution ([6]; 10 μM compound): noticeably increased the amount of adiponectin

SMILES: Oc1cc2c(cc1O)CN(C(=S)NCCc1ccc(Cl)cc1)CCC2 [capsazepine]
- amount of fat droplets (oil red O) compared to DMSO control ([4]; 3 μM compound): no noticeable activity of increasing fat droplet formation
- level of expression of adiponectin [5]: increase the level of expression of adiponectin
- amount of adiponectin contained in the culture solution ([6]; 3 μM compound): no action of increasing the amount of adiponectin
